In patent publication US20240238263A1, “USE OF PYRIDONE DERIVATIVE CONTAINING HETEROATOM CYCLOBUTANE SUBSTITUENT” (GUANGZHOU JOYO PHARMATECH CO., LTD, priority 2021, published 2024):

Tested on: dorsal skin full-thickness excisional wound in STZ-induced diabetic rats
Assay: Dorsal skin full-thickness excisional wound model in STZ-induced diabetic rats, wound closure
Format: in vivo, Wistar rats
Experimental: In this study, 50 STZ-diabetic rats were used to simulate Type 1 diabetes, with an additional 8 normal rats serving as the control group (normal blank gel control group (without STZ)). The method for modeling the STZ-diabetic rat is as follows: Male Wistar rats were weighed and then intraperitoneally injected with Streptozotocin (STZ, freshly prepared, dissolved in 0.1 M citrate buffer (pH 4.5)) at a dosage of 80 mg/kg. STZ was intraperitoneally injected twice in total, with a 5-day interval between injections. Three days after the second STZ injection, rats with fasting blood glucose levels greater than 250 mg/dl were defined as diabetic model rats. Studies on skin wound healing could be conducted from 1 to 8 weeks after the successful establishment of the diabetic rat model. • 2.
In diabetic model rats, the dorsal skin was marked with a stamp, and full-thickness excision was performed to create a standardized wound area. The day of the full-thickness skin excision surgery was designated as Day 1 of the experiment. The specified surgical procedure was as follows: • 1) Prior to surgery, animals were anesthetized with 2-5% isoflurane. The back was shaved and prepared, and the surgical area was disinfected with iodophor, followed by de-iodination with 75% alcohol. • 2) All animals were marked on the skin of their backs using a stamp with a circular pattern. A circular full-thickness skin excision was performed along the midline of the rat's back, extending down to the fascial layer. […] The surgical site was essentially consistent for each animal; • 3) Post-surgery, every 8-12 hours, 8 mg/kg of bupivacaine (diluted to 0.25% with physiological saline) was injected subcutaneously at the wound site. All animals were closely monitored until they regained consciousness. Animals were monitored daily, and if symptoms of pain persisted, they would continue to receive pain medication. • 4. Drug administration:
All experimental groups were topically administered. Before administering the medication, wounds were rinsed with physiological saline and any residual moisture was absorbed with a sterile cotton swab. Then, the medication was applied. For the GeneTime group, the solution was evenly applied to the wound and surrounding skin, with the dressing changed twice a day. For the other groups, the gel samples were applied from the periphery toward the center, focusing first on the edges of the lesion before covering inward, with the dressing changed twice a day. Medication was applied immediately after the wound model was created, and each group was continuously administered for 18 days. For specific administration information, see Table 2. • 5. Efficacy assessment • 1) Blood glucose monitoring: Blood samples were obtained from all animals via tail vein sampling, and fasting blood glucose levels were measured on days 0/9/18 using a glucometer. • 2) Evaluation of wound closure:
After anesthetizing the rats with isoflurane, a ruler was placed near the wound as a reference scale. Using a digital camera, photos of the wound on the rat's back were taken on days 1, 4, 8, 11, 14, and 18, maintaining a constant focus and pixel condition. The obtained images were processed by software to measure the wound area. • 6. Statistical analysis
Experimental data were expressed as the mean±standard error of the mean (mean±S.E.M.). Statistical analyses were conducted using appropriate methods in software such as Graphpad Prism or SPSS. A p-value of less than 0.05 is considered to indicate a significant difference. • 7. Results • 1) Fasting blood glucose
Remaining Open Wound Area %=Open Wound Area (O)/Initial Wound Area (I)*100%

CC1(c2ccc(=O)n(-c3ccsc3)c2)COC1 [compound I]
Remaining open wound area (0.3% compound I gel, 50 mg topical twice daily, Day 1 (day of surgery)): 100% ± | Remaining open wound area (0.3% compound I gel, 50 mg topical twice daily, Day 4): 94.82% ± | Remaining open wound area (0.3% compound I gel, 50 mg topical twice daily, Day 8): 54% ± | Remaining open wound area (0.3% compound I gel, 50 mg topical twice daily, Day 11): 24.5% ± | Remaining open wound area (0.3% compound I gel, 50 mg topical twice daily, Day 14): 7.75% ± | Remaining open wound area (0.3% compound I gel, 50 mg topical twice daily, Day 18): 1.22% ± | Remaining open wound area (1% compound I gel, topical twice daily, Day 1 (day of surgery)): 100% ± | Remaining open wound area (1% compound I gel, topical twice daily, Day 4): 94.25% ± | Remaining open wound area (1% compound I gel, topical twice daily, Day 8): 55.4% ± | Remaining open wound area (1% compound I gel, topical twice daily, Day 14): 5.47% ± | Remaining open wound area (1% compound I gel, topical twice daily, Day 18): 0.78% ± | Change of remaining open wound area % vs model blank gel control group (1% compound I gel, after 14 days of topical administration, no statistical difference): tended to decrease | Change of remaining open wound area % vs model blank gel control group (1% compound I gel, day 11 after administration, P<0.01): significantly reduced | Remaining open wound area (3% compound I gel, topical twice daily, Day 1 (day of surgery)): 100% ± | Remaining open wound area (3% compound I gel, topical twice daily, Day 4): 93.96% ± | Remaining open wound area (3% compound I gel, topical twice daily, Day 8): 56.92% ± | Remaining open wound area (3% compound I gel, topical twice daily, Day 14): 6% ± | Remaining open wound area (3% compound I gel, topical twice daily, Day 18): 2.01% ± | Change of remaining open wound area % vs model blank gel control group (3% compound I gel, after 14 days of topical administration, no statistical difference): tended to decrease | Change of remaining open wound area % vs model blank gel control group (3% compound I gel, day 11 after administration, P<0.05): significantly reduced
